Read-outs that look alike come from different tables or passages of the source. Numbered stars: 1 amine (or outer) side, 2 acyl side, 3 side chain; on linkers, the order of the positions; unused ones are H or OH. Square brackets hold non-standard residues; d marks the D form. Side chains are listed from the residue outwards. * marks the point of attachment. C20 diacid = O=C(O)CCCCCCCCCCCCCCCCCCC(=O)*; C18 diacid = O=C(O)CCCCCCCCCCCCCCCCC(=O)*; C16 diacid = O=C(O)CCCCCCCCCCCCCCC(=O)*; γGlu = O=C(O)[C@H](CCC(=O)[*:2])N[*:1]; AEEA = NCCOCCOCC(=O)O; Aib = CC(C)(N)C(=O)O
How the values were obtained:
[1] = target: T1, human GLP-1 receptor (hGLP-1R) (Homo sapiens, UniProt P43220); experiment: GLP-1 receptor assay, method A (CRE-luciferase reporter, BHK cells); type: cell-based
T1 construct: expressed in transfected cells
In short: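 Run in parallel with no HSA and with 1% (w/v) HSA to gauge albumin effects; assay buffer also held 1% ovalbumin, 10 mM HEPES and 0.1% Pluronic F-68. Thawed hGLP-1R BHK CRE-Luc cells incubated 3 h at 37 °C, then luciferase luminescence measured (steadylite Plus).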

[2] = target: T2, human GIP receptor (hGIPR) (Homo sapiens, UniProt P48546); experiment: GIP receptor assay, method A (CRE-luciferase reporter, BHK cells); type: cell-based
T2 construct: expressed in transfected cells
T2 sequence (P48546 22-466): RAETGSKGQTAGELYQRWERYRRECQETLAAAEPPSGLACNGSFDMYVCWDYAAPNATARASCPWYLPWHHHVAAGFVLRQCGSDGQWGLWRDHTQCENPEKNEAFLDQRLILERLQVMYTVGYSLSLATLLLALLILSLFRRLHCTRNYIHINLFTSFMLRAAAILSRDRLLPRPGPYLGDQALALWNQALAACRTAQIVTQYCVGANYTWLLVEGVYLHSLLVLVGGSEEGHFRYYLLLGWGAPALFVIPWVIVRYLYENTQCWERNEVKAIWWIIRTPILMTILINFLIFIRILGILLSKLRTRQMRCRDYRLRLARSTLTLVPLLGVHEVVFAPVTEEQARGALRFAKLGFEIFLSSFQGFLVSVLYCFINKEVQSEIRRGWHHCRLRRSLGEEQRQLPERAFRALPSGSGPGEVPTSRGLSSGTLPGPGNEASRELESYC
In short: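 BHK cells co-expressing hGIPR and a CRE-luciferase reporter were stimulated for 3 h at 37 °C with a 7-point, 10-fold compound titration in duplicate. Buffer was DMEM, 10 mM HEPES, 1% ovalbumin, 0.1% Pluronic F-68, without HSA or with 1% (w/v) HSA. EC50 [pM] came from four-parameter logistic fits of luminescence.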

[3] = hGLP-1R Potency, 1% HSA, EC50, method A, in the presence of 1% HSA
[4] = method A, absence of HSA, read-out: hGLP-1R Potency, no HSA, EC50
[5] = hGIPR Potency, 1% HSA, EC50, method A, in the presence of 1% HSA
[6] = method A, absence of HSA, read-out: hGIPR Potency, no HSA, EC50

T1 sequence (P43220 24-463): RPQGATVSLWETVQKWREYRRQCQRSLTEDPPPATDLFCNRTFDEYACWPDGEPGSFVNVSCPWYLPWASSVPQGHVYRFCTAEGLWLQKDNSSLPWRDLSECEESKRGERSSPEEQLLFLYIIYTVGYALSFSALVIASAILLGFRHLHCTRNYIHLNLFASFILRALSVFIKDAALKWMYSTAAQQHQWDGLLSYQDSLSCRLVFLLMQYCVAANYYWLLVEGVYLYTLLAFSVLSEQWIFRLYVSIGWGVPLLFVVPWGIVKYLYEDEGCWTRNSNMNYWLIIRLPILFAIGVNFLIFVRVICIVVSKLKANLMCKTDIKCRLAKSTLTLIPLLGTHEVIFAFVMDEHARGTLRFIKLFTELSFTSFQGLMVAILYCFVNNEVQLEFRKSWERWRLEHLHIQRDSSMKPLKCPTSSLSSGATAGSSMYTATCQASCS

| Substance | EC50 [1, 3] [nM] | EC50 [1, 4] [nM] | EC50 [2, 5] [nM] | EC50 [2, 6] [nM] | EC50 ([1]; hGLP-1R Potency, no HSA, EC50, method A, absence of HSA) [nM] | EC50 ([2]; hGIPR Potency, no HSA, EC50, method A, absence of HSA) [nM] |
| --- | --- | --- | --- | --- | --- | --- |
| Y[Aib]EGTFTSDYSILLEEQAAREFIEWLLAGGPSSGAPPPSGGGEASHLSTAQTQRLSAK([AEEA-AEEA-γGlu-C18 diacid])LHRLATLPRTETGSGSP-NH2 [Compound 109] | 0.0947 | 0.0689 | 0.0174 | 0.00742 | – | – |
| Y[Aib]EGTFTSDYSILLEEQAAREFIEWLLAGGPSSGEASHLSTAQTQRLSAK([AEEA-AEEA-γGlu-C18 diacid])LHRLATLPRTETGSGSP-NH2 [Compound 79] | 0.168 | 0.0387 | 0.0247 | 0.0047 | – | – |
| Y[Aib]EGTFTSDYSILLEEQAAREFIEWLLAGGPSSGAGQAPGQAPGASHLSTAALGRLSAELHK([AEEA-AEEA-γGlu-C18 diacid])LATLPRTETGSGSP-NH2 [Compound 53] | 0.0792 | 0.0233 | 0.0146 | 0.00325 | – | – |
| H[Aib]HGTFTSDYSILLEEQAAREFIEWLLAGGPSSGEASHLSTAQTQRLSAK([AEEA-AEEA-γGlu-C18 diacid])LHRLATLPRTETGSGSP-NH2 [Compound 82] | 0.0242 | 0.00345 | 0.0191 | 0.0037 | – | – |
| H[Aib]HGTFTSDYSILLEEQAAREFIEWLLAGGPSK([AEEA-AEEA-γGlu-C18 diacid])GAPPPSGGGEASELSTAALGRLSAELHELATLPRTETGSGSP-NH2 [Compound 15] | 0.103 | 0.00141 | 0.356 | 0.0032 | – | – |
| H[Aib]HGTFTSDYSILLEEQAAREFIEWLLAGGPSK([AEEA-AEEA-γGlu-C16 diacid])GAPPPSGGGEASELSTAALGRLSAELHELATLPRTETGSGSP-NH2 [Compound 12] | 0.0102 | – | 0.0591 | 0.00262 | – | – |
| H[Aib]HGTFTSDYSILLEEQAAREFIEWLLAGGPSK([AEEA-AEEA-γGlu-C18 diacid])GAPPPSGGGEASHLSTAQTARLSAELHQLATLPRTETGSGSP-NH2 [compound 101] | 0.179 | 0.00324 | 0.129 | 0.00187 | – | – |
| H[Aib]HGTFTSDYSILLEEQAAREFIEWLLAGGPSK([AEEA-AEEA-γGlu-C18 diacid])GEASHLSTAQTARLSAELHELATLPRTETGSGSP-NH2 [Compound 36] | 0.208 | 0.00319 | 0.226 | 0.00196 | – | – |
| H[Aib]HGTFTSDYSILLEEQAAREFIEWLLAGGPSK([AEEA-AEEA-γGlu-C16 diacid])GEASELSTAALGRLSAELHRLATLPRTETGSGSP-NH2 [Compound 17] | 0.0131 | 0.00272 | 0.0369 | 0.00504 | – | – |
| Y[Aib]EGTFTSDYSILLEEQAAREFIEWLLAGGPSSGAGQAPGASHLSTAQTQRLSAELHK([AEEA-AEEA-γGlu-C18 diacid])LATLPRTETGSGSP-NH2 [Compound 97] | 0.109 | 0.0161 | 0.00838 | 0.0023 | – | – |
| H[Aib]HGTFTSDYSILLEEQAAREFIEWLLAGGPSSGEASHLSTAALGRLSAELHRLK([AEEA-AEEA-γGlu-C18 diacid])TLPRTETGSGSP-NH2 [Compound 89] | 0.0295 | 0.00386 | 0.0306 | 0.00647 | – | – |
| H[Aib]HGTFTSDYSILLEEQAAREFIEWLLAGGPSRGEASHLSTAQTQRLSAELHK([AEEA-AEEA-γGlu-C18 diacid])LATLPRTETGSGSP-NH2 [Compound 69] | 0.0204 | 0.00345 | 0.00805 | 0.0019 | – | – |
| Y[Aib]EGTFTSDYSILLEEQAAREFIEWLLAGGPSRGEASHLSTAQTQRLSAELHK([AEEA-AEEA-γGlu-C18 diacid])LATLPRTETGSGSP-NH2 [compound 68] | 0.0519 | 0.0121 | 0.0119 | 0.00183 | – | – |
| H[Aib]HGTFTSDYSILLEEQAAREFIEWLLAGGPSK([AEEA-AEEA-γGlu-C20 diacid])GAPPPSGGGEASELSTAALGRLSAELHELATLPRTETGSGSP-NH2 [Compound 16] | 0.238 | 0.00274 | 0.485 | 0.00427 | – | – |
| H[Aib]HGTFTSDYSILLEEQAAREFIEWLLAGGPSK([AEEA-AEEA-γGlu-C16 diacid])GEASQLSTAALGRLSAELHRLADLPRTETGSGSP-NH2 [Compound 62] | 0.0115 | – | 0.0472 | – | 0.00413 | 0.00226 |
| Y[Aib]EGTFTSDYSILLEEQAAREFIEWLLAGGPSSGAPPPSGGGEASHLSTAQTQRLSAK([AEEA-AEEA-γGlu-C20 diacid])LHRLATLPRTETGSGSP-NH2 [Compound 110] | 0.169 | 0.107 | 0.0293 | 0.00801 | – | – |
| Y[Aib]EGTFTSDYSILLEEQAAREFIEWLLAGGPSK([AEEA-AEEA-γGlu-C18 diacid])GEASHLSTAQTARLSAELHELATLPRTETGSGSP-NH2 [Compound 35] | – | 0.0233 | – | 0.00197 | – | – |
| H[Aib]HGTFTSDYSILLEEQAAREFIEWLLAGGPSSGAGQAPGQAPGASHLSTAQTQRLSAELHRLK([AEEA-AEEA-γGlu-C18 diacid])TLPRTETGSGSP-NH2 [Compound 91] | 0.0174 | 0.00379 | 0.00931 | 0.00321 | – | – |
| Y[Aib]EGTFTSDYSILLEEQAAREFIEWLLAGGPSSGAGQAPGQAPGASHLSTAQTQRLSAELHRLATLPK([AEEA-AEEA-γGlu-C18 diacid])TETGSGSP-NH2 [Compound 57] | 0.0296 | 0.0128 | 0.00585 | 0.00198 | – | – |
| Y[Aib]EGTFTSDYSILLEEQAAREFIEWLLAGGPSSGAGQAPGQAPGASHLSTAQTQRLSAELHK([AEEA-AEEA-γGlu-C18 diacid])LATLPRTETGSGSP-NH2 [compound 52] | 0.0269 | 0.011 | 0.00679 | 0.00183 | – | – |
| Y[Aib]EGTFTSDYSILLEEQAAREFIEWLLAGGPSSGEASHLSTAQTQRLSAELHK([AEEA-AEEA-γGlu-C18 diacid])LATLPRTETGSGSP-NH2 [Compound 50] | 0.0663 | 0.0162 | 0.0151 | 0.00236 | – | – |
| Y[Aib]EGTFTSDYSILLEEQAAREFIEWLLAGGPSK([AEEA-AEEA-γGlu-C18 diacid])GEASELSTAALGRLSAELHELATLPRTETGSGSP-NH2 [Compound 26] | 1.68 | 0.0207 | 0.558 | 0.00175 | – | – |
| H[Aib]HGTFTSDYSILLEEQAAREFIEWLLAGGPSK([AEEA-AEEA-γGlu-C18 diacid])GEASQLSTAALGRLSAELHTLATLPRTETGSGSP-NH2 [Compound 63] | 0.101 | 0.00477 | 0.0632 | 0.0016 | – | – |
| Y[Aib]EGTFTSDYSILLEEQAAREFIEWLLAGGPSSGAGQAPGQAPGASHLSTAQTQRLSAK([AEEA-AEEA-γGlu-C18 diacid])LHRLATLPRTETGSGSP-NH2 [compound 55] | 0.0453 | 0.023 | 0.0103 | 0.003 | – | – |
| Y[Aib]EGTFTSDYSILLEEQAAREFIEWLLAGGPSSGAGQAPGQAPLASHLSTAQTQRLSAELHK([AEEA-AEEA-γGlu-C18 diacid])LATLPRTETGSGSP-NH2 [compound 58] | 0.0256 | 0.0127 | 0.00758 | 0.00188 | – | – |
| Y[Aib]EGTFTSDYSILLEEQAAREFIEWLLAGGPSSGAGQAPGQAPGASHLSTAQTQRLSAELHRLK([AEEA-AEEA-γGlu-C18 diacid])TLPRTETGSGSP-NH2 [Compound 56] | 0.0584 | 0.0182 | 0.00848 | 0.00265 | – | – |
| Y[Aib]EGTFTSDYSILLEEQAAREFIEWLLAGGPSSGEASHLSTAQTQRLSAELHRLK([AEEA-AEEA-γGlu-C18 diacid])TLPRTETGSGSP-NH2 [Compound 80] | 0.111 | 0.0248 | 0.0203 | 0.00401 | – | – |
| Y[Aib]EGTFTSDYSILLEEQAAREFIEWLLAGGPSK([AEEA-AEEA-γGlu-C16 diacid])GEASELSTAALGRLSAELHELATLPRTETGSGSP-NH2 [Compound 11] | 0.204 | 0.0104 | 0.0583 | 0.00169 | – | – |
| H[Aib]HGTFTSDYSILLEEQAAREFIEWLLAGGPSSGEASHLSTAALGRLSAK([AEEA-AEEA-γGlu-C18 diacid])LHRLATLPRTETGSGSP-NH2 [Compound 87] | 0.0393 | 0.00849 | 0.0386 | 0.00726 | – | – |
| H[Aib]HGTFTSDYSILLEEQAAREFIEWLLAGGPSK([AEEA-AEEA-γGlu-C18 diacid])GAPPPSGGGGASELSTAALGRLSAELHRLATLPRTETGSGSP-NH2 [Compound 14] | 0.0759 | 0.00205 | 0.254 | 0.00584 | – | – |

Reference: US20260174875A1 (Novo Nordisk A/S, priority 2023, published 2026)
